The values that follow are results of earlier work, collected in patent US9090495B2, “Slow release tablet composition for treating industrial water systems” (AMSA, Inc., priority 2009, dated 2015).

The conditions of series [1]: typical cooling tower system; composition of U.S. Pat. No. 4,816,061.
The conditions of series [2]: alkaline pH, such as pH~9, industrial water system conditions.

As for `CCCCCCCCCCSCCN` [n-decylthioethylamine], the “Duration of effectiveness of a typical dose” value in series [1] is 1 to 1.5 days.

As to `N#CC(Br)(Br)C(N)=O` [DBNPA, 2,2-dibromo-3-nitrilopropionamide], in series [2], the Time to degradation entry is given as “a few minutes”.
